From patent US10865191B2, “Heterocyclic compounds useful as modulators of TNF alpha” (BRISTOL-MYERS SQUIBB COMPANY, priority 2015, dated 2020)
Read-outs that look alike come from different tables or passages of the source.

Target: TNFα (Homo sapiens, UniProt P01375)
Test: TNF induced HEK-Blue assay (NF-kB-driven secreted alkaline phosphatase reporter)
Format: cell-based
Conditions: TNFα 0.5 ng/mL, HEK-Blue-CD40L cells, 18 h
Outline: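 HEK-Blue-CD40L cells (NF-kB-driven SEAP reporter), 20,000/well, added after 30 min pre-incubation of compound (0.004–25 μM final) with TNFα 0.5 ng/mL final at 37 °C; 18 h incubation. SEAP read with QUANTI-Blue at 620 nm; IC50 from 4-parameter logistic fit, normalized to unstimulated and stimulated DMSO controls.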

[1] = read-out: TNF induced HEK-Blue assay IC50 value
[2] = TNF induced HEK-Blue assay IC50 value

Chain of TNFα (P01375 77-233 limits assumed): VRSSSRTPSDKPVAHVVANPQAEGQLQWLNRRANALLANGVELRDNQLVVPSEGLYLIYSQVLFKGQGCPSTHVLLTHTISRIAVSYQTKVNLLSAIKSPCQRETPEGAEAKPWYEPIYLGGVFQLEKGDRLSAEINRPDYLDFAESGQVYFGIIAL

IC50 [1] [µM]	IC50 [2] [µM]	SMILES
< 1	–	Cc1ccc(C)c(Nc2c(Cl)c(N)nc3ccc(-c4cnc(N5CCNC(=O)C5)nc4)cc23)c1 [Example 72, 4-(5-(2-amino-3-chloro-4-((2,5-dimethylphenyl)amino)quinolin-6-yl)pyrimidin-2-yl)piperazin-2-one]
< 1	–	CC(C)(O)c1ncc(-c2nc3c(N[C@@H](c4ccccc4F)C(F)F)c(Cl)cnc3cc2F)cn1 [Example 207, (S)-2-(5-(7-chloro-8-((2,2-difluoro-1-(2-fluorophenyl)ethyl)amino)-3-fluoro-1,5-naphthyridin-2-yl)pyrimidin-2-yl)propan-2-ol]
< 1	–	C[C@@H](Nc1c(Cl)cnc2ccc(-c3ccc(C(O)(CF)CF)cc3)cc12)c1ccccc1F [Example 117, (R)-2-(4-(3-chloro-4-((1-(2-fluorophenyl)ethyl)amino)quinolin-6-yl)phenyl)-1,3-difluoropropan-2-ol]
< 1	–	Cc1nc2cc(F)c(-c3cnc(C(C)(C)O)nc3)cc2c(N[C@H](C)c2cccc(C(N)=O)c2)c1Cl [Example 394, (R)-3-(1-((3-chloro-7-fluoro-6-(2-(2-hydroxypropan-2-yl)pyrimidin-5-yl)-2-methylquinolin-4-yl)amino)ethyl)benzamide]
–	< 1	C[C@@H](Nc1c(Cl)cnc2ccc(-c3cnc(C(C)(C)O)nc3)cc12)c1cc(N2CCCC2)ccc1F [Example 364, (R)-2-(5-(3-chloro-4-((1-(2-fluoro-5-(pyrrolidin-1-yl)phenyl)ethyl)amino)quinolin-6-yl)pyrimidin-2-yl)propan-2-ol]
< 1	–	CC(Nc1c(Cl)cnc2ccc(-c3cnc(N4CCNC(=O)C4)nc3)cc12)c1nc(C(N)=O)ccc1F (single isomer, unassigned) [Example 26, 6-(1-((3-chloro-6-(2-(3-oxopiperazin-1-yl)pyrimidin-5-yl)quinolin-4-yl)amino)ethyl)-5-fluoropicolinamide]
< 1	–	Cc1nc2cc(F)c(-c3cnc(C(C)(C)O)nc3)nc2c(N[C@H](C)c2cccc(C(N)=O)c2)c1Cl [Example 580, (R)-3-(1-((3-chloro-7-fluoro-6-(2-(2-hydroxypropan-2-yl)pyrimidin-5-yl)-2-methyl-1,5-naphthyridin-4-yl)amino)ethyl)benzamide]
< 1	–	CC(C)(O)c1ncc(-c2nc3c(N[C@H](c4cc(C(N)=O)ccc4F)C(F)F)c(Cl)cnc3cc2F)cn1 [Example 487, (R)-3-(1-((3-chloro-7-fluoro-6-(2-(2-hydroxypropan-2-yl)pyrimidin-5-yl)-1,5-naphthyridin-4-yl)amino)-2,2-difluoroethyl)-4-fluorobenzamide]
< 1	–	COc1ncc(-c2ccc(F)c([C@@H](C)Nc3c(Cl)cnc4ccccc34)c2)cc1C#N [Example 520, (R)-5-(3-(1-((3-chloroquinolin-4-yl)amino)ethyl)-4-fluorophenyl)-2-methoxynicotinonitrile]
< 1	–	COc1ccncc1-c1ccc(F)c([C@@H](C)Nc2c(Cl)cnc3ccccc23)c1 [Example 548, (R)-3-chloro-N-(1-(2-fluoro-5-(4-methoxypyridin-3-yl)phenyl)ethyl) quinolin-4-amine]
< 1	–	C[C@@H](Nc1c(Cl)cnc2ccccc12)c1cc(-c2cnn(C)c2)ccc1F [Example 454, (R)-3-chloro-N-(1-(2-fluoro-5-(1-methyl-1H-pyrazol-4-yl)phenyl)ethyl)quinolin-4-amine]
1 to 10	–	CC(C)(O)c1ncc(-c2ccc3ncc(Cl)c(NC4(c5ccccc5)CC4)c3c2)cn1 [Example 161, 2-(5-(3-chloro-4-((1-phenylcyclopropyl)amino)quinolin-6-yl)pyrimidin-2-yl)propan-2-ol]
< 1	–	C[C@@H](Nc1c(Cl)cnc2ccccc12)c1cc(-c2cnc(N)nc2)ccc1F [Example 481, (R)—N-(1-(5-(2-aminopyrimidin-5-yl)-2-fluorophenyl)ethyl)-3-chloroquinolin-4-amine]
–	< 1	CC(Nc1c(Cl)cnc2ccc(-c3cnc(C(C)(C)O)nc3)cc12)c1ccccc1F (racemic) [Example 152, 2-(5-(3-chloro-4-((1-(2-fluorophenyl)ethyl)amino)quinolin-6-yl)pyrimidin-2-yl)propan-2-ol]
< 1	–	C[C@@H](Nc1c(Cl)cnc2ccc(-c3cnc(C(C)(C)O)nc3)cc12)c1cc(-c2ccc(N)nc2)ccc1F [Example 348, (R)-2-(5-(4-((1-(5-(6-aminopyridin-3-yl)-2-fluorophenyl)ethyl)amino)-3-chloroquinolin-6-yl)pyrimidin-2-yl)propan-2-ol]
1 to 10	–	C[C@H](Nc1c(Cl)cnc2ccc(-c3cnc(C(C)(C)O)nc3)cc12)[C@H]1CCCN(S(=O)(=O)c2cnn(C)c2)C1 [Example 564, 2-(5-(3-chloro-4-(((S)-1-((S)-1-((1-methyl-1H-pyrazol-4-yl)sulfonyl)piperidin-3-yl)ethyl)amino)quinolin-6-yl)pyrimidin-2-yl)propan-2-ol]
1 to 10	–	C[C@@H](Nc1c(Cl)cnc2ccc(-c3ccc(C(N)CC(=O)O)cc3)cc12)c1ccccc1F (mixture of isomers) [Example 115, 3-amino-3-(4-(3-chloro-4-(((R)-1-(2-fluorophenyl)ethyl)amino)quinolin-6-yl)phenyl)propanoic acid]

IC50 [1] [µM]	IC50 [2] [µM]	SMILES
< 1	–	C[C@@H](Nc1c(Cl)cnc2ccc(-c3cnc(N4CCNC(=O)C4)nc3)cc12)c1ccccc1F [Example 226, (R)-4-(5-(3-chloro-4-((1-(2-fluorophenyl)ethyl)amino)quinolin-6-yl)pyrimidin-2-yl)piperazin-2-one]
< 1	–	Cc1ccc(C)c(Nc2c(Cl)c(N)nc3ccc(-c4cnc(NCCO)nc4)cc23)c1 [Example 70, 2-((5-(2-amino-3-chloro-4-((2,5-dimethylphenyl)amino)quinolin-6-yl)pyrimidin-2-yl)amino)ethan-1-ol]
10 to 25	–	CC(Nc1c(Cl)cnc2ccc(-c3ccc(C(C)(C)O)cc3)cc12)c1cnsc1 (racemic) [Example 172, 2-(4-(3-chloro-4-((1-(isothiazol-4-yl)ethyl)amino)quinolin-6-yl)phenyl)propan-2-ol]
< 1	–	C=CC(=O)N1CCN(c2ccc(-c3ccc4ncc(Cl)c(N[C@H](C)c5ccccc5F)c4c3)cn2)CC1 [Example 123, (R)-1-(4-(5-(3-chloro-4-((1-(2-fluorophenyl)ethyl)amino)quinolin-6-yl)pyridin-2-yl)piperazin-1-yl)prop-2-en-1-one]
1 to 10	–	C[C@@H](Nc1c(Cl)cnc2ccccc12)c1cc(-c2cncc(C#N)c2)ccc1F [Example 541, (R)-5-(3-(1-((3-chloroquinolin-4-yl)amino)ethyl)-4-fluorophenyl)nicotinonitrile]
< 1	–	CC(Nc1c(Cl)cnc2ccc(-c3cnc(N4CCNC(=O)C4)nc3)cc12)c1nc(N)ccc1F (stereo not drawn) [Example 562, 4-(5-(4-((1-(6-amino-3-fluoropyridin-2-yl)ethyl)amino)-3-chloroquinolin-6-yl)pyrimidin-2-yl) piperazin-2-one]
< 1	–	C[C@@H](Nc1c(Cl)cnc2ccc(-c3cnc(C4(O)CCC(=O)CC4)nc3)cc12)c1ccccc1F [Example 114, (R)-4-(5-(3-chloro-4-((1-(2-fluorophenyl)ethyl)amino)quinolin-6-yl)pyrimidin-2-yl)-4-hydroxycyclohexanone]
1 to 10	–	C[C@@H](Nc1c(Cl)cnc2ccc(-c3ccc(N4CCNCC4)nc3)cc12)c1ccccc1F [Example 88, (R)-3-chloro-N-(1-(2-fluorophenyl)ethyl)-6-(6-(piperazin-1-yl)pyridin-3-yl)quinolin-4-amine]
–	10 to 25	C[C@H](Nc1c(Cl)cnc2cnc(-c3cnc(C(C)(C)O)nc3)cc12)c1ccccc1F (single isomer, unassigned) [Example 234]
< 1	–	CC(Nc1c(Cl)cnc2ccc(-c3ccc(C(C)(C)O)cc3)cc12)c1ncccc1F (racemic) [Example 170, 2-(4-(3-chloro-4-((1-(3-fluoropyridin-2-yl)ethyl)amino)quinolin-6-yl)phenyl) propan-2-ol]
< 1	–	Cc1cnc2ccc(-c3cnc(C(C)(C)O)nc3)cc2c1N[C@H](C)c1ccccc1F [Example 240, (R)-2-(5-(4-((1-(2-fluorophenyl)ethyl)amino)-3-methylquinolin-6-yl)pyrimidin-2-yl)propan-2-ol]
< 1	–	CC(C)(O)c1ncc(-c2nc3c(N[C@H](c4cc(CO)ccc4F)C(F)F)c(Cl)cnc3cc2F)cn1 [Example 486, (R)-2-(5-(7-chloro-8-((2,2-difluoro-1-(2-fluoro-5-(hydroxymethyl)phenyl)ethyl)amino)-3-fluoro-1,5-naphthyridin-2-yl)pyrimidin-2-yl)propan-2-ol]
1 to 10	–	CN(C)CC(Nc1c(Cl)cnc2ccc(-c3cnc(C(C)(C)O)nc3)cc12)c1ccccc1F (racemic) [Example 12, 2-(5-(3-chloro-4-((2-(dimethylamino)-1-(2-fluorophenyl)ethyl)amino)quinolin-6-yl)pyrimidin-2-yl) propan-2-ol]
< 1	–	Cc1ccc(C)c(Nc2c(Cl)c(N)nc3ccc(-c4cnc(NC(CO)CO)nc4)cc23)c1 [Example 71, 2-((5-(2-amino-3-chloro-4-((2,5-dimethylphenyl)amino)quinolin-6-yl)pyrimidin-2-yl)amino)propane-1,3-diol]
< 1	–	C[C@@H](Nc1c(Cl)cnc2ccccc12)c1cc(-c2ccccc2)ccc1F [Example 459, (R)-3-chloro-N-(1-(4-fluoro-[1,1′-biphenyl]-3-yl)ethyl)quinolin-4-amine]
< 1	–	C=Cc1cccc([C@@H](C)Nc2c(Cl)c(C)nc3cc(F)c(-c4cnc(C(C)(C)O)nc4)nc23)c1 [Example 571, (R)-2-(5-(7-chloro-3-fluoro-6-methyl-8-((1-(3-vinylphenyl)ethyl)amino)-1,5-naphthyridin-2-yl)pyrimidin-2-yl)propan-2-ol]
